Data taken from patent publication US9879004B2, “Substituted acetylene derivatives and their use as positive allosteric modulators of mGluR4” (Merck Patent GmbH, priority 2013, dated 2018).

Molecular target: T1, mGluR4 (HEK293T-hmGluR4 cells) (Homo sapiens, UniProt Q14833)
T1 construct: host or cells: HEK293T
Test: HEK-293 mGluR4 cells cAMP assay with EC20 L-Glutamate (HTRF)
Assay type: cell-based
Conditions: positive allosteric activity at EC20 L-Glutamate, 10 μM Forskolin, cAMP HTRF readout, read-out: hrmGluR4/HEK293T-hmGluR4 (EC50)
Experimental: HEK-293 mGluR4 cells cAMP assay with EC20 L-Glutamate
Using mGluR4 suspension cell format, 10 μM Forskolin (final conc.) used to induce the production of cAMP.
Test the positive allosteric activity of the compounds of the invention at EC20 (2.3 μM for mGluR4 and 4.3 μM for mGluR6) L-Glutamate,
cAMP dymanic2 kit is intended for the direct quantitative determination of cAMP and its principle is based on HTRF technology.
Cells: HEK293T mGluR4 cells from Multispan, cat# C1191a lot# C1191a-040910 Culture Media: DMEM+GlutaMAX1+10% dialyzed FBS, 100 mM Sodium Pyruvate, 1 ug/ml puromycin.
Glutamine Starvation Media: DMEM without GlutaMax for plating the cells (glutamine starvation overnight). DMEM high Glucose, without phenol red, glutamine, or sodium pyruvate+10% dialyzed FBS, 100 mM Sodium Pyruvate, 1 ug/ml puromycin, 10 mM Hepes.
Cell Preparation: split cells at 80%-90% confluence. The following day, rinse the cells with DMEM without GlutaMax and change to Glutamine Starvation Media. Incubate overnight.
Prepare compound plate: Perform compound serial dilution (uses Matrix 4341 plate), using the Bravo liquid handling platform protocol (compound serial dilution) which adds DMSO to columns 1-24 (except cols. 3 and 13). Serial dilute compounds located in columns 3 and 13 at a 1:3 ratio; 10 points (10 ul of 3 mM compound into 20 ul DMSO). Use the Bravo liquid handling platform to transfer 1 ul from the serial dilution plate into Matrix 4314 plate to create stamp plates.
Dilute 20 mM Forskolin (in DMSO) stock solution in HBSS buffer to make a 20 uM solution (forskolin buffer; 2× solution). To the forskolin buffer, add glutamate to a concentration of 8 uM (compound dilution buffer; 2×EC20 glutamate and forskolin).
Using a multidrop, add 50 ul/well of compound dilution buffer to columns 1-22 of the 2 ul compound stamp plate. Columns 23 and 24 receive forskolin buffer containing 400 uM glutamate (EC100 glutamate; 2× solution). Columns 1 and 2 receive compound dilution buffer containing EC20 glutamate, which is the basal control. Add a glutamate dose response to row P of compound plate. Prepare the dose response by serial diluting glutamate at a 1:3 ratio in forskolin buffer starting at 2 mM glutamate (2×). Dilute the glutamate 9 times and transfer to compound plate.
Harvest cells: Rinse cells with pre-warmed HBSS-10 mM HEPES (without Ca Mg) and dissociate the cells from the flask with versene. Centrifuge the cells, remove the supernatant and suspend in pre-warmed HBSS+10 mM Hepes. Count the cells and centrifuge. Remove the supernatant and suspend the cells in HBSS+Hepes (with Ca Mg) at a density of 400,000 cells/ml.
Dispense 5 ul from the diluted compound plate into Greiner low volume cell plate using the Bravo liquid handling platform. Using a Multidrop with the small tubing cassette, dispense 5 ul of cells (2000 cells/well) onto the compounds contained in the low volume plates. Incubate the cells at 37° C., 5% CO2 for 30 minutes in the incubator.
Prepare cAMP-d2 and anti-cAMP-Crytate according to the instructions for the two step assay (see Cisbio manual) and add 10 ul of the mixed reagent to each well of the assay plate using the Multidrop. Incubate at room temperature for 60 minutes and read on the Envision plate reader using the mGluR low volume cAMP HTRF 384 well protocol. The readout is the calculated fluorescence ratio ([…]*10000).

T1 sequence (Q14833 33-912): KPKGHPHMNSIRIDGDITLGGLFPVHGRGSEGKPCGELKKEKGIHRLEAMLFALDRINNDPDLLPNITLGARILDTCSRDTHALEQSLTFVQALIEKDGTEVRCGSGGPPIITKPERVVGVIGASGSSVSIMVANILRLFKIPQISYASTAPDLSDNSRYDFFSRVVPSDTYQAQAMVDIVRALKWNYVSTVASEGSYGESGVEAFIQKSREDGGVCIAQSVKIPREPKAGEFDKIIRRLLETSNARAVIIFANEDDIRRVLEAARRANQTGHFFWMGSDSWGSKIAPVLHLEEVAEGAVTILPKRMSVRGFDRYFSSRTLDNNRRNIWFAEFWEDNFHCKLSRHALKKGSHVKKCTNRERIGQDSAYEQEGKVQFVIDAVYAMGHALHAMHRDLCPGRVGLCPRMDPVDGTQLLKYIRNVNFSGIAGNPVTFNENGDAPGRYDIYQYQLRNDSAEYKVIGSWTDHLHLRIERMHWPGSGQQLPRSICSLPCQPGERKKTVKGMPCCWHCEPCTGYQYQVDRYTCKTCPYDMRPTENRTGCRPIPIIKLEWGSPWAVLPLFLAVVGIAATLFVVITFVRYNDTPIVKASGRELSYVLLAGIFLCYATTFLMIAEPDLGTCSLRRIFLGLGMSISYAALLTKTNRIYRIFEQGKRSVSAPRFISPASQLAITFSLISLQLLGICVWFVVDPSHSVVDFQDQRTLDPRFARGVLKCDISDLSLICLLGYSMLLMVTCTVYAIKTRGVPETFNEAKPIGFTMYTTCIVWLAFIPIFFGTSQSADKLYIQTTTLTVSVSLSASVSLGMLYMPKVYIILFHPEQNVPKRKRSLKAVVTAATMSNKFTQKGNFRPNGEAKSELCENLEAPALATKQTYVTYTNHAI

| EC50 [µM] | Structure (SMILES) |
| --- | --- |
| < 1 | C(#Cc1ccnc2ccccc12)c1ccccc1 [Compound 1, 4-Phenylethynyl-quinoline] |
| < 1 | Fc1cccc(C#Cc2ccnc3ccccc23)c1 [Compound 2, 4-(3-Fluoro-phenylethynyl)-quinoline] |
| < 1 | C(#Cc1ccnc2ccccc12)c1ccsc1 [Compound 3, 4-Thiophen-3-ylethynyl-quinoline] |
| < 1 | Fc1ccc(C#Cc2ccnc3ccccc23)cc1 [Compound 4, 4-(4-Fluoro-phenylethynyl)-quinoline] |
| < 1 | Fc1ccc(C#Cc2ccnc3ccccc23)cc1F [Compound 5, 4-(3,4-Difluoro-phenylethynyl)-quinoline] |
| 1 to 10 | C(#Cc1ccnc2ccccc12)c1cccs1 [Compound 6, 4-Thiophen-2-ylethynyl-quinoline] |
| 1 to 10 | Fc1ccccc1C#Cc1ccnc2ccccc12 [Compound 7, 4-(2-Fluoro-phenylethynyl)-quinoline] |
| 1 to 10 | Fc1ccccc1C#Cc1ccnc2[nH]ccc12 [Compound 8, 4-(2-Fluoro-phenylethynyl)-1H-pyrrolo[2,3-b]pyridine] |
| 1 to 10 | Clc1cccc(C#Cc2ccnc3ccccc23)c1 [Compound 9, 4-(3-Chloro-phenylethynyl)-quinoline] |
